Assay results as given in ChEMBL document CHEMBL1201862, “PubChem BioAssay data set” (2004).
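96-well plates; 48 h exposure; 5 concentrations. Endpoints by linear interpolation between flanking doses. Not reached: highest tested concentration assigned. GI50 marks 50% less growth.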 Active and inactive are the calls of the source. Rule as the data show it: active = GI50 up to about 1.1 µM and inactive = higher.

Columns and labels:
Experiment in all cases: NCI-60 cell line screen, 48 h
[1] = tested on: NCI-H460
[2] = tested on: SF-539
[3] = tested on: A498
[4] = tested on: SK-MEL-2
[5] = tested on: HCT-15
[6] = tested on: OVCAR-4
[7] = tested on: 786-0
[8] = tested on: MOLT-4
[9] = tested on: UACC-257
[10] = tested on: OVCAR-5
[11] = tested on: SW-620
[12] = tested on: RPMI-8226
[13] = tested on: NCI-H23
[14] = tested on: K562

Structure (SMILES)	GI50 [1]	GI50 [2]	GI50 [3]	GI50 [4]	GI50 [5] [µM]	GI50 [6]	GI50 [7]	GI50 [8]	GI50 [9]	GI50 [10]	GI50 [11]	GI50 [12]	GI50 [13]	GI50 [14]
N#Cc1c(CC(=O)O)cc(=O)n2c1[nH]c1ccccc12	> 100 µM (inactive)	> 100 µM (inactive)	> 100 µM (inactive)	> 100 µM (inactive)	> 100	> 100 µM (inactive)	> 100 µM (inactive)	> 100 µM (inactive)	> 100 µM (inactive)	> 100 µM (inactive)	> 100 µM (inactive)	> 100 µM (inactive)	> 100 µM (inactive)	> 100 µM (inactive)
NNC(=O)/C(=C/c1ccc(Cl)cc1Cl)NC(=O)c1ccccc1	> 100 µM (inactive)	> 100 µM (inactive)	> 100 µM (inactive)	> 100 µM (inactive)	> 100	> 100 µM (inactive)	> 100 µM (inactive)	60.5 µM (inactive)	> 100 µM (inactive)	> 100 µM (inactive)	> 100 µM (inactive)	86.7 µM (inactive)	> 100 µM (inactive)	71.4 µM (inactive)
COC(=O)C1=C(C(=O)OC)N(C(C)C)[C@H]2C(C(=O)OC)=C(C(=O)OC)N(C(C)C)[C@@H]12	> 100 µM (inactive)	> 100 µM (inactive)	> 100 µM (inactive)	> 100 µM (inactive)	> 100	> 100 µM (inactive)	> 100 µM (inactive)	71 µM (inactive)	> 100 µM (inactive)	> 100 µM (inactive)	> 100 µM (inactive)	84.1 µM (inactive)	> 100 µM (inactive)	> 100 µM (inactive)
CCOc1ccccc1N1C(=O)C(=O)C(c2nc3ccccc3o2)C(=O)C1=O	–	> 100 µM (inactive)	48.6 µM (inactive)	> 100 µM (inactive)	> 100	15.7 µM (inactive)	21.2 µM (inactive)	> 100 µM (inactive)	> 100 µM (inactive)	> 100 µM (inactive)	> 100 µM (inactive)	> 100 µM (inactive)	> 100 µM (inactive)	> 100 µM (inactive)
CCCCCN(CCCCC)C(=O)[C@@H](CCC(=O)O)NC(=O)c1cc2ccccc2[nH]1	34.4 µM (inactive)	22.3 µM (inactive)	> 100 µM (inactive)	27.7 µM (inactive)	37.7	44 µM (inactive)	46.5 µM (inactive)	21.5 µM (inactive)	49.4 µM (inactive)	> 100 µM (inactive)	63.1 µM (inactive)	16 µM (inactive)	22.8 µM (inactive)	36.5 µM (inactive)
O=C1CNC(=O)c2[nH]cnc2N1	> 100 µM (inactive)	> 100 µM (inactive)	> 100 µM (inactive)	–	> 100	> 100 µM (inactive)	> 100 µM (inactive)	> 100 µM (inactive)	–	> 100 µM (inactive)	> 100 µM (inactive)	> 100 µM (inactive)	> 100 µM (inactive)	82.6 µM (inactive)
CC(=O)Nc1[nH]c(=O)[nH]c(=O)c1N(C(C)=O)C(C)=O	> 100 µM (inactive)	> 100 µM (inactive)	> 100 µM (inactive)	> 100 µM (inactive)	> 100	> 100 µM (inactive)	> 100 µM (inactive)	> 100 µM (inactive)	> 100 µM (inactive)	> 100 µM (inactive)	> 100 µM (inactive)	> 100 µM (inactive)	–	> 100 µM (inactive)
CN1C(c2ccccc2)CS(=O)(=O)CS1(=O)=O (stereo unspecified)	> 100 µM (inactive)	> 100 µM (inactive)	> 100 µM (inactive)	> 100 µM (inactive)	> 100	> 100 µM (inactive)	> 100 µM (inactive)	–	> 100 µM (inactive)	> 100 µM (inactive)	> 100 µM (inactive)	–	> 100 µM (inactive)	–
O=C1c2ccccc2C(=O)c2cc3c(cc21)C[S+]([O-])C3	> 100 µM (inactive)	> 100 µM (inactive)	–	> 100 µM (inactive)	> 10	> 100 µM (inactive)	> 100 µM (inactive)	> 100 µM (inactive)	> 100 µM (inactive)	> 100 µM (inactive)	> 100 µM (inactive)	> 100 µM (inactive)	> 100 µM (inactive)	> 100 µM (inactive)
CS(=O)(=O)OCCN1CCN(C(=O)c2cccc3c(Nc4ccc(S(=O)(=O)N=C(N)N)cc4)c4ccccc4nc23)CC1	> 100 µM (inactive)	> 100 µM (inactive)	> 100 µM (inactive)	> 10 µM (inactive)	> 100	> 100 µM (inactive)	> 100 µM (inactive)	> 100 µM (inactive)	> 100 µM (inactive)	> 100 µM (inactive)	–	> 100 µM (inactive)	> 100 µM (inactive)	> 100 µM (inactive)
